System: Human erythropoietin (hEPO) levels in sera
Test: Delivery of hEPO mRNA by intramuscular administration of lipid nanoparticles; serum hEPO by ELISA
Format: in vivo, Mouse
Conditions: third occasion; serum, 6 hours post dose; 0.1 μg/animal hEPO mRNA LNP, IM, mice, n=4
Protocol: WO2022/099003 A1 describes an in vivo assay for intramuscular administration (e.g. on page 46, paragraph [00206]). Further details of the intramuscular experiment performed in this application are provided below.
Treatment Regimen: On Day 1, animals from Groups 1-8 were dosed via intramuscular injection while under light isoflurane anesthesia according to the study design table above. Animals in Groups 2-8 were injected with EPO in the right leg only. Group 1 animals received saline control.
Interim Sample Collections: Interim whole blood (~50 μL) was collected by tail snip or saphenous vein at 6 hours post dose administration (±5%). Blood samples were collected into serum separator tubes, allowed to clot at room temperature for at least 10 minutes, centrifuged at ambient temperature at minimum 1000 g for 10 minutes and the serum was extracted. All serum samples were stored at nominally −70° C. until analysis hEPO by the Testing Facility. The results of the EPO analysis were included in the Data Submission.
Terminal Blood Collections: Whole blood was collected via cardiac puncture into serum separator tube, allowed to clot at room temperature for at least 10 minutes, centrifuged at ambient temperature at minimum 1000 g for 10 minutes and the serum was extracted. Serum samples were stored at nominally −70° C. until analyzed for hEPO by the Test Facility.
ELISA Assay: Human erythropoietin (hEPO) levels in sera samples were determined by ELISA kit (R&D systems, Cat #DEP-00) according to the manufactory instruction and the results were included in the Data Submission. The “shaker” protocol was used. The serum samples were diluted between 1:40 and 1:100.
The ability of the further exemplary lipid nanoparticles in Example 54 to deliver hEPO mRNA by intramuscular administration was tested in accordance with the experimental protocol set out in Example 52.

CCCCCCCCCCC(O)CN(CCCOC(=O)[C@H](Cc1ccc(O)cc1)NC(=O)CCCN(CC(O)CCCCCCCCCC)CC(O)CCCCCCCCCC)CC(O)CCCCCCCCCC (stereo partly drawn) [Compound XCIX, 3-(bis(2-hydroxydodecyl)amino)propyl (4-(bis(2-hydroxydodecyl)amino)butanoyl)-L-tyrosinate]
hEPO 6 Hr (ng/mL) Mean: 38.1 ng/mL

Reference: US20260216368A1, “BIS-ESTER AND AMIDE CATIONIC LIPIDS” (SANOFI PASTEUR INC., priority 2022, published 2026)
